Where two headings read alike, the source gives them in different places.

One data set relates to Grippe-Virus B/Lii. As to the kind of experiment: One-cycle test, virus yield in calf kidney cell culture. Type of data set: cell-based. Particulars: MOI = 1. From the text: Bei den Mehrcyclen- und Eincyclustests werden einschichtige Zellkulturen einer embryonalen Kalbsniere verwendet, welche mit Grippe-Viren A/H3N2/Texas/77 und B/Lii/MOI = 0.01-0.5 und 1-10 entsprechend infiziert werden. Die Ausbeute an infektiösem und hämaglutinierendem Virus wird in der 24sten Stunde (bei einem Mehrcyclentest) und entsprechend in der zwölften bis fünfzehnten Stunde (bei einem Eincyclustest) ausgerechnet. Der infektiöse Titer wird EID₅₀/ml bestimmt. Dieselben Versuche werden auch mit Virus FPV (Stamm Weibridge) in Zellen EHF(bei Ausrechnung des infektiösen Virus Plaque-bildenden Einheiten und des hämaglutinierenden Virus) durchgeführt. Die Wirksamkeit der Verbindungen wird im Bezug auf die Kontrolle (ohne Inhibitoren) ausgerechnet.

Data set [1] relates to Virus FPV (Stamm Weibridge). The format is cell-based, Grippe-Virus A/H7N7/. Particulars: for inf. Titer in PBE/ml / XA-Titer: MOI = 0,5.
The test system of a further data set is Virus FPV. As to the kind of experiment: organism not typed. The format is cell-based, Grippe-Virus A/H7N7/. The note with it: 72 h; for Inhibitionsprozent (Verminderung der Plaquebildung): Zellen EHF.
The conditions of data set [2]: DD-13 18,7 mg/kg.
The mark [3] stands for this setting: read-out: Inhibitionsprozent (Verminderung der Plaquebildung).

As to `CC(N)C12CC3CC(CC(C3)C1)C2` (stereo not drawn) [Rimantadin, reference compound], the “inf. Titer in log. EID50/ml” value in the data set on Grippe-Virus B/Lii (Rim. 5 mkg/ml alone, control 6,3) is 6,0 log. EID50/ml; in the data set with Grippe-Virus B/Lii (Rim. 25 mkg/ml alone, control 6,3), 4,7 log. EID50/ml. Further, the XA-Titer stood at 4 in the data set with Grippe-Virus B/Lii (Rim. 5 mkg/ml alone, control 8); 4 with Grippe-Virus B/Lii (Rim. 25 mkg/ml alone, control 8); 32 in data set [1] (Rim. 1 mkg/ml alone, control 2048); 32 in data set [1] (Rim. 5 mkg/ml alone, control 2048). Also, the “Verminderung der Ausbeute des hämaglutivierenden Virus (fold)” value in data set [1] (5 mkg/ml Rimantadin alone) was determined as 64. Further, the “inf. Titer in PBE/ml” value is 4,2x10^4 PBE/ml in data set [1] (Rim. 1 mkg/ml alone, control 1.7x10^7) and 4,4x10^4 PBE/ml in data set [1] (Rim. 5 mkg/ml alone, control 1.7x10^7). In the data set on Virus FPV (setting [3]), the inhibition at 0.0001 µM stood at 3.52%. Moreover, the inhibition at 0.001 µM in the data set on Virus FPV (setting [3]) stood at 18.4%. Besides, the inhibition at 0.01 µM with Virus FPV (setting [3]) was 48%. In addition, the “Inhibitionsprozent (Verminderung der Plaquebildung)” value with Virus FPV (Rimantadin 10^-9 M/1 alone) was 18,37 ± 14,19%.

Regarding `O=C1NCCCN1CN1CCOCC1` [DD-13], the “inf. Titer in log. EID50/ml” value in the data set on Grippe-Virus B/Lii (DD-13 12,5 (unit not given) alone, control without inhibitors 6,3) was 4,0 log. EID50/ml; in the data set on Grippe-Virus B/Lii (DD-13 25 (unit not given) alone, control 6,3) it was 2,5 log. EID50/ml; with Grippe-Virus B/Lii (DD-13 50 (unit not given) alone, control 6,3), 2,0 log. EID50/ml. Moreover, the XA-Titer in the data set with Grippe-Virus B/Lii (DD-13 12,5 (unit not given) alone, control without inhibitors 8) is reported as 8; in the data set on Grippe-Virus B/Lii (DD-13 25 (unit not given) alone, control 8), 4; with Grippe-Virus B/Lii (DD-13 50 (unit not given) alone, control 8) it was 4; in data set [1] (DD-13 15 mkg/ml alone, control without inhibitors 2048), 1024; in data set [1] (DD-13 30 mkg/ml alone, control 2048), 512; in data set [1] (DD-13 60 mkg/ml alone, control 2048), 256. The “Verminderung der Ausbeute des hämaglutivierenden Virus (fold)” value in data set [1] (60 mkg/ml DD-13 alone) is on record as “viermalige”. Moreover, the “inf. Titer in PBE/ml” value in data set [1] (DD-13 15 mkg/ml alone, control without inhibitors 1.7x10^7) is given as 5x10^6 PBE/ml; in data set [1] (DD-13 30 mkg/ml alone, control 1.7x10^7) it was 6,9x10^6 PBE/ml; in data set [1] (DD-13 60 mkg/ml alone, control 1.7x10^7), 3,9x10^6 PBE/ml. For the same compound, the “dose as fraction of LD50” value in data set [2] is recorded as 1/213. Besides, the inhibition at 10 µM in the data set on Virus FPV (setting [3]) amounted to 2.3%. Moreover, the inhibition at 30 µM with Virus FPV (setting [3]) was 15.2%. Also, the inhibition at 100 µM in the data set with Virus FPV (setting [3]) was 34.3%. Besides, in the data set with Virus FPV (setting [3]), the inhibition at 300 µM is 85%. The inhibition at 1000 µM in the data set on Virus FPV (setting [3]) was 99.2%. The “Inhibitionsprozent (Verminderung der Plaquebildung)” value with Virus FPV (DD-13 3x10^-4 M/1 alone) is recorded as 85,00%.

Source of the values: patent publication EP0324875A1 (priority 1988, dated 1989).
